Assay: xn = mol fraction of the nth substance listed
Conditions: for speed of sound: 100 kPa, Sing-around technique in a fixed-path interferometer; for speed of sound / viscosity / mass density: Liquid; for viscosity / mass density: 101 kPa; for viscosity: Falling or rolling sphere viscometry; for mass density: Vibrating tube method; for surface tension liquid-gas: 294.4 K, Pendant drop shape

CCCCCCCCCCCCCCCC [hexadecane] + CCc1ccccc1
Conditions | mass density [kg/m3] | speed of sound [m/s] | viscosity [mPa·s]
293.15 K, x2 = 0 | 773.49 | 1357.3 | 3.44
293.15 K, x2 = 0.1007 | 777.15 | 1353.4 | 3.01
293.15 K, x2 = 0.2 | 781.37 | 1349.4 | 2.63
293.15 K, x2 = 0.3002 | 786.28 | 1345.2 | 2.28
293.15 K, x2 = 0.4013 | 792.08 | 1340.7 | 1.96
293.15 K, x2 = 0.5002 | 798.81 | 1336.7 | 1.69
293.15 K, x2 = 0.6001 | 806.86 | 1333.1 | 1.43
293.15 K, x2 = 0.7002 | 816.95 | 1330.4 | 1.21
293.15 K, x2 = 0.8001 | 829.46 | 1329.3 | 1.01
293.15 K, x2 = 0.9 | 845.47 | 1331.5 | 0.83
303.15 K, x2 = 0 | 766.55 | 1320 | 2.72
303.15 K, x2 = 0.1007 | 770.16 | 1316 | 2.42
303.15 K, x2 = 0.2 | 774.31 | 1312 | 2.14
303.15 K, x2 = 0.3002 | 779.13 | 1307.8 | 1.88
303.15 K, x2 = 0.4013 | 784.83 | 1303.1 | 1.64
303.15 K, x2 = 0.5002 | 791.42 | 1298.9 | 1.42
303.15 K, x2 = 0.6001 | 799.32 | 1295 | 1.23
303.15 K, x2 = 0.7002 | 809.21 | 1291.9 | 1.05
303.15 K, x2 = 0.8001 | 821.46 | 1291.1 | 0.88
303.15 K, x2 = 0.9 | 837.13 | 1291.3 | 0.73
313.15 K, x2 = 0 | 759.63 | 1283.3 | –
313.15 K, x2 = 0.1007 | 763.17 | 1279.2 | –
313.15 K, x2 = 0.2 | 767.24 | 1275.1 | –
313.15 K, x2 = 0.3002 | 771.97 | 1270.8 | –
313.15 K, x2 = 0.4013 | 777.56 | 1266 | –
313.15 K, x2 = 0.5002 | 784.01 | 1261.6 | –
313.15 K, x2 = 0.6001 | 791.75 | 1257.4 | –
313.15 K, x2 = 0.7002 | 801.42 | 1253.8 | –
313.15 K, x2 = 0.8001 | 813.41 | 1251.3 | –
313.15 K, x2 = 0.9 | 828.73 | 1251.6 | –
323.15 K, x2 = 0 | 752.71 | 1247.3 | 1.82
323.15 K, x2 = 0.1007 | 756.18 | 1243.2 | 1.65
323.15 K, x2 = 0.2 | 760.17 | 1239 | 1.49
323.15 K, x2 = 0.3002 | 764.8 | 1234.5 | 1.34
323.15 K, x2 = 0.4013 | 770.27 | 1229.4 | 1.19
323.15 K, x2 = 0.5002 | 776.58 | 1224.8 | 1.05
323.15 K, x2 = 0.6001 | 784.14 | 1220.3 | 0.92
323.15 K, x2 = 0.7002 | 793.6 | 1216.2 | 0.8
323.15 K, x2 = 0.8001 | 805.42 | 1213.1 | 0.68
323.15 K, x2 = 0.9 | 820.29 | 1212.5 | 0.57
333.15 K, x2 = 0 | 745.79 | 1212 | 1.53
333.15 K, x2 = 0.1007 | 749.19 | 1207.7 | 1.4
333.15 K, x2 = 0.2 | 753.09 | 1203.4 | 1.28
333.15 K, x2 = 0.3002 | 757.62 | 1198.8 | 1.15
333.15 K, x2 = 0.4013 | 762.96 | 1193.6 | 1.03
333.15 K, x2 = 0.5002 | 769.13 | 1188.6 | 0.92
333.15 K, x2 = 0.6001 | 776.51 | 1183.8 | 0.81
333.15 K, x2 = 0.7002 | 785.74 | 1179.2 | 0.7
333.15 K, x2 = 0.8001 | 797.18 | 1175.5 | 0.6
333.15 K, x2 = 0.9 | 811.8 | 1173.9 | 0.52
343.15 K, x2 = 0 | 738.9 | – | 1.31
343.15 K, x2 = 0.1007 | 742.2 | – | 1.21
343.15 K, x2 = 0.2 | 746 | – | 1.1
343.15 K, x2 = 0.3002 | 750.4 | – | 1.01
343.15 K, x2 = 0.4013 | 755.6 | – | 0.9
343.15 K, x2 = 0.5002 | 761.6 | – | 0.81
343.15 K, x2 = 0.6001 | 768.9 | – | 0.71
343.15 K, x2 = 0.7002 | 777.9 | – | 0.62
343.15 K, x2 = 0.8001 | 789 | – | 0.54
343.15 K, x2 = 0.9 | 803.3 | – | 0.47
353.15 K, x2 = 0 | 731.8 | – | 1.13
353.15 K, x2 = 0.1007 | 735 | – | 1.05
353.15 K, x2 = 0.2 | 738.7 | – | 0.96
353.15 K, x2 = 0.3002 | 743 | – | 0.88
353.15 K, x2 = 0.4013 | 748.1 | – | 0.8
353.15 K, x2 = 0.5002 | 754 | – | 0.71
353.15 K, x2 = 0.6001 | 761.1 | – | 0.64
353.15 K, x2 = 0.7002 | 769.8 | – | 0.56
353.15 K, x2 = 0.8001 | 780.7 | – | 0.49
353.15 K, x2 = 0.9 | 794.5 | – | 0.43
363.15 K, x2 = 0 | 724.7 | – | 0.99
363.15 K, x2 = 0.1007 | 727.8 | – | 0.92
363.15 K, x2 = 0.2 | 731.5 | – | 0.85
363.15 K, x2 = 0.3002 | 735.6 | – | 0.78
363.15 K, x2 = 0.4013 | 740.6 | – | 0.7
363.15 K, x2 = 0.5002 | 746.3 | – | 0.63
363.15 K, x2 = 0.6001 | 753.1 | – | 0.58
363.15 K, x2 = 0.7002 | 761.6 | – | 0.51
363.15 K, x2 = 0.8001 | 772.2 | – | 0.45
363.15 K, x2 = 0.9 | 785.6 | – | 0.39
373.15 K, x2 = 0 | 717.5 | – | 0.87
373.15 K, x2 = 0.1007 | 720.6 | – | 0.82
373.15 K, x2 = 0.2 | 724.1 | – | 0.76
373.15 K, x2 = 0.3002 | 728.1 | – | 0.69
373.15 K, x2 = 0.4013 | 732.9 | – | 0.63
373.15 K, x2 = 0.5002 | 738.4 | – | 0.57
373.15 K, x2 = 0.6001 | 745.1 | – | 0.52
373.15 K, x2 = 0.7002 | 753.3 | – | 0.47
373.15 K, x2 = 0.8001 | 763.6 | – | 0.41
373.15 K, x2 = 0.9 | 776.6 | – | 0.36

Conditions | surface tension liquid-gas [mN/m]
x2 = 0 | 27.3
x2 = 0.2 | 27.4
x2 = 0.4013 | 27.5
x2 = 0.5002 | 27.5
x2 = 0.6001 | 27.8
x2 = 0.7002 | 28
x2 = 0.8001 | 28.2
x2 = 0.9 | 28.5
